# From patent US9470680B2, “Fluorescence-based approach to monitor release factor-catalyzed termination of protein synthesis” (THE TRUSTEES OF COLUMBIA UNIVERSITY IN THE CITY OF NEW YORK, priority 2011, dated 2016)
# Tests used:
# [1] = system: RC2 (release complex with L1(Cy5) ribosomes and (Cy3)tRNAPhe); assay: L1-tRNA smFRET monitoring the GS1/GS2 equilibrium; format: biochemical, Escherichia coli
# Description: RCs assembled on a biotinylated mRNA were immobilized on the surface of a streptavidin-derivatized quartz flow cell and visualized with single-molecule resolution using a total internal reflection fluorescence microscope. RC surface immobilization strategy and lab-built total internal reflection fluorescence (TIRF) microscope are described in FIG. 10. Experiments were performed at room temperature in Tris-polymix buffer at 15 mM Mg(OAc)2, supplemented with an oxygen-scavenging system (300 μg ml^−1 glucose oxidase, 40 μg ml^−1 catalase and 1% (w/v)(β-D-glucose). In addition, 1 mM 1,3,5,7-cyclooctatetraene (Aldrich) and p-nitrobenzyl alcohol (Fluka) was added to all buffers in order to quench a long-lived, non-fluorescent triplet state sampled by the Cy5 fluorophore. The oxygen-scavenging and triplet state quencher systems have no effect on the in vitro translation system used herein (Gonzalez et al. 2007; Blanchard et al. 2004b).
# (§1) Quartz microscope slides were cleaned and subsequently derivatized with a mixture of polyethyleneglycol (PEG) and PEG-biotin in order to passivate the surface (Blanchard et al. 2004b). Just prior to data acquisition, slides were treated with streptavidin, allowing immobilization of ribosomal RCs bound to an mRNA with a 3′-biotinylated DNA oligonucleotide pre-annealed to its 5′ end. smFRET data was collected with a wide-field, prism-based total internal reflection fluorescence microscope utilizing a 150 mW diode-pumped 532 nm laser (CrystaLaser) operating at 24 mW for Cy3 excitation, a 25 mW diode-pumped 643 nm laser (CrystaLaser) operating at 19 mW for direct Cy5 excitation, a Dual-View multi-channel imaging system (MAG Biosystems) for separation of Cy3 and Cy5 fluorescence emissions, and a back-thinned charge-coupled device camera (Cascade II, Princeton Instruments) with 2-pixel binning and 50 ms exposure time for detection. Single ribosomal RCs were identified by characteristic single-fluorophore fluorescence intensities as well as single-step fluorophore photobleaching.
# Raw intensity data was analyzed with the Metamorph software suite (Molecular Devices). […] For L1-tRNA smFRET experiments with RC2, excited Cy5 was directly with the 643 nm laser in frame one, followed by excitation with the 532 nm laser in order to generate FRET. […] Acquired trajectories composed of a pair of Cy3 and Cy5 intensity versus time trajectories from single ribosomes, were then visually inspected. […] For all RRF and RF3(GDPNP) datasets, an automated selection algorithm was first utilized before visual inspection of the trajectories. This algorithm averages each trajectory over three data points, differentiates intensity with respect to time, and calculates the correlation coefficient for each Cy3/Cy5 pair. Trajectories with a negative correlation coefficient (anti-correlated) were kept for further analysis. Finally, all trajectories were required to last at least 0.5 seconds (i.e. 10 frames) before photobleaching of either fluorophore.
# Cy3 and Cy5 fluorescence intensities were baseline corrected in each trajectory by generating one-dimensional Cy3 and Cy5 fluorescence intensity histograms from trajectories within each dataset, determining the intensity value of the most populated bin (which represents background noise intensity after fluorophore photobleaching), and then subtracting this value from all Cy3 and Cy5 intensity data points within every trajectory. Due to the imperfect performance of emission filters, the Cy3 signal bleed-through into the Cy5 channel was experimentally determined to be ˜9%. The Cy5 intensity of each trajectory was corrected using this bleed-through coefficient. smFRET values for each Cy3/Cy5 data point were calculated using ICy5/(ICy3+ICy5), where ICy3 and ICy5 are the intensities of Cy3 and Cy5, respectively.
# The rates of GS1→GS2 (kGS1→GS2) and G52→GS1 (kGS2→GS1) transitions for each dataset were determined as follows. […]
# [2] = target: GS2 conformation of the PoTC (RC2Pmn); assay: RRF titration, binding isotherm fit of GS2/GS1 peak area ratio; set-up: species or system Escherichia coli
# Source text: (§2) To more quantitatively probe the subtle effect of RRF on the GS1⇄GS2 equilibrium, one-dimensional smFRET histograms of the entire population of trajectories were plotted as a function of RRF concentration (FIG. 24). The areas under the peaks centered at 0.16 and 0.76 FRET report the equilibrium populations of GS1 and GS2, respectively. […] Assuming that RRF can bind to both GS1 and GS2, a plot of the GS2/GS1 peak area ratio (Keq) vs. RRF concentration can be fit by the following binding isotherm in order to determine the equilibrium dissociation constants for RRF binding to GS1 (Kd,GS1) and GS2 (Kd,GS2) (Sarkar et al. 2007):
# (§3) [formula] where C is the GS2/GS1 peak area ratio in the absence of RRF.
# [3] = target: GS1 conformation of the PoTC (RC2Pmn); assay: as above; set-up: species or system Escherichia coli
# Source text: as §2, §3
# [4] = target: vacant ribosomes; conditions: in the absence of mRNA or tRNAs; read-out: Kd of RRF binding to vacant ribosomes; cited from earlier work
# [5] = system: RC1 (release complex, fMet-Phe-(Cy3)tRNAPhe in the P site, stop codon at the A site); assay: RF1-tRNA smFRET between P-site (Cy3)tRNAPhe and (Cy5)RF1 bound at the A site; format: binding, Escherichia coli; conditions: UAA-U stop codon, in the presence of paromomycin (100 μM per FIG. 11)
# Source text: RCs assembled on a biotinylated mRNA were immobilized on the surface of a streptavidin-derivatized quartz flow cell and visualized with single-molecule resolution using a total internal reflection fluorescence microscope. RC surface immobilization strategy and lab-built total internal reflection fluorescence (TIRF) microscope are described in FIG. 10. […]
# as §1, with “Single ribosomal RCs were identified by characteristic single-fluorophore fluorescence intensities as well as single-step fluorophore photobleaching.” left out
# Raw intensity data was analyzed with the Metamorph software suite (Molecular Devices). […]
# [6] = system: polypeptide release at a stop codon; conditions: cited from earlier work
# [7] = system: RF1-bound RCs; assay: RF3 activity assay (RF3-catalyzed RF1 recycling, multiple-turnover peptide release); format: biochemical, Escherichia coli; conditions: limiting RF1; GDP, GTP or GDPNP; 10 minutes
# Description: RF3 activity was tested by following the extent of peptide release in cases where RF1 was limiting and RF3 was required to actively recycle RF1, thereby enabling multiple turnover (Zavialov et al. 2001). Reactions were performed as described, with two exceptions: when present, GDP, GTP, or GDPNP was added to the RF1/RF3 mix during the 1 minute pre-incubation, and upon adding the RF1/RF3/nucleotide mix to RCs, reactions were incubated for 10 minutes.
# [8] = RC2Pmn in the presence of 1 μM factor
# [9] = RC2Pmn, 0-1.5 μM RRF (near Kd,GS2)
# [10] = RC2RF1 in the presence of 1 μM RF1 and 1 μM RF3 form, no GTP
# [11] = RC2RF1 in the presence of 1 μM RF1, RF3(GDP) and 1 mM GTP
# [12] = RC2 pre-treated with puromycin (RC2Pmn), no factors, corrected rate
compound,measurement,setting,value
RRF: Escherichia coli ribosome recycling factor,kGS1→GS2 relative to free RC2Pmn,[1]; 50 μM RRF versus 0.52±0.03 s^−1,1.6 fold
same,trajectories fluctuating between 0.16 and 0.76 FRET,[1]; [8],70%
same,trajectories stably centered at / sampling only 0.16 FRET (GS1),[1]; [8],7%
same,trajectories stably centered at / sampling only 0.76 FRET (GS2),[1]; [8],23%
same,kGS1→GS2 as a function of RRF concentration,[1]; [9],remain unchanged
same,kGS2→GS1 as a function of RRF concentration,[1]; [9],decreases linearly
same,kGS1→GS2,"[1]; RC2Pmn, 50 μM RRF",0.83 ± 0.06 s⁻¹
same,Kd,[2]; RC2Pmn + RRF titration,900 ± 300 nM
same,binding to GS2 over GS1,"[2]; from Kd,GS2 and Kd,GS1",greater than an order of magnitude tighter binding to GS2 over GS1
same,Kd,[3],12000 ± 2000 nM
same,Kd,[4],200 to 600 nM
nucleotide-free RF3: RF3 without guanine nucleotide,trajectories fluctuating between 0.16 and 0.76 FRET,[1]; [10],1%
same,trajectories stably centered at 0.16 FRET (GS1),[1]; [10],99%
RF3(GDP): RF3 in the GDP form,"kGS2→GS1 relative to RC2Pmn in the absence of RF1, RF3 and guanine nucleotide",[1]; RC2RF1+RF3(GDP)+GTP versus 1.36±0.03 s^−1,~3 fold
same,kGS2→GS1,"[1]; RC2RF1+RF3(GDP)+GTP, 1 μM RF1, 10 μM GDP and 1 mM GTP, corrected rate, lower limit",≥ 3.7 ± 0.6 s⁻¹
same,trajectories exhibiting fluctuations between GS1 and GS2,[1]; [11],42%
same,trajectories stably centered at 0.16 FRET (GS1),[1]; [11],58%
same,trajectories fluctuating between 0.16 and 0.76 FRET,[1]; [10],2%
same,trajectories stably centered at 0.16 FRET (GS1),[1]; [10],98%
"RF1: Escherichia coli class 1 release factor 1, purified, co-expressed with PrmC methyltransferase",trajectories fluctuating between 0.16 and 0.76 FRET,[1]; [8],9%
same,trajectories stably centered at / sampling only 0.16 FRET (GS1),[1]; [8],85%
same,trajectories stably centered at / sampling only 0.76 FRET (GS2),[1]; [8],6%
same,trajectories fluctuating between 0.16 and 0.76 FRET,[1]; RC2 in the presence of 1 μM factor,2%
same,trajectories stably centered at 0.16 FRET (GS1),[1]; RC2 in the presence of 1 μM factor (87% without RF1),98%
"RF3(GDPNP): RF3 with GDPNP, a non-hydrolyzable GTP analog",trajectories fluctuating between 0.16 and 0.76 FRET,[1]; [8],22%
same,trajectories stably centered at / sampling only 0.16 FRET (GS1),[1]; [8],5%
same,trajectories stably centered at / sampling only 0.76 FRET (GS2),[1]; [8],73%
S192C: single-cysteine S192C RF1 (PVT domain) labeled with Cy5,lifetime of the FRET state (dwell time analysis),[5],< 0.38 ± 0.02 s
NC[C@@H]1O[C@H](O[C@H]2[C@@H](O)[C@H](O[C@@H]3[C@@H](O)[C@H](N)C[C@H](N)[C@H]3O[C@H]3O[C@H](CO)[C@@H](O)[C@H](O)[C@H]3N)O[C@@H]2CO)[C@H](N)[C@@H](O)[C@@H]1O [paromomycin],inhibition of polypeptide release at a stop codon,[6],very strongly inhibits polypeptide release at a stop codon
"COc1ccc(C[C@H](N)C(=O)N[C@H]2[C@@H](O)[C@H](n3cnc4c(N(C)C)ncnc43)O[C@@H]2CO)cc1 [puromycin, reference compound]",trajectories fluctuating between 0.16 and 0.76 FRET,"[1]; RC2 pre-treated with puromycin (RC2Pmn), no factors",~63%
same,kGS1→GS2,[1]; [12],0.52 ± 0.03 s⁻¹
same,kGS2→GS1,[1]; [12],1.36 ± 0.03 s⁻¹
"RF3: Escherichia coli class II release factor, a GTPase",nucleotide dependence of RF3-catalyzed RF1 recycling,[7],exhibits the proper nucleotide dependence in recycling RF1
